Laboratory results reported in PMC6662551 (Clinical and Translational Science, 2019).
“And” between values parts separate entries of the source, which are not always exact repeats. Identical values can stand only once. Like-named read-outs stand apart in the source and are kept apart here.

Columns and labels:
OATP1B1 [1] = details: c.521T>C carriers; cited from earlier work
[2] = for AUC(0-t): AUC0→12, text, pravastatin peak only
OATP1B1 [3] = assay type: in vivo, human; details: human, plasma, oral; for AUC(0-t): AUClast, 0.25-12 hour; for C0: C0, plasma, baseline
[4] = assay type: in vivo, human; details: for AUClast: 0.25-12 hour; for C0: plasma
[5] = pravastatin + cyclosporine, CC (N = 2)
[6] = pravastatin + cyclosporine, TC (N = 6)
[7] = pravastatin + cyclosporine, TT (N = 8)
[8] = pravastatin + placebo, CC (N = 2)
[9] = pravastatin + placebo, TC (N = 6)
[10] = pravastatin + cyclosporine, all genotype (N = 16)
[11] = pravastatin + placebo, TT (N = 8)
[12] = pravastatin + placebo, all genotype (N = 16)
[13] = 12 hours after first CsA dose, pravastatin + cyclosporine, all genotype
[14] = baseline, pravastatin + placebo, all genotype
[15] = pravastatin + cyclosporine (N = 16)

Compound: CC(C)c1nc(N(C)S(C)(=O)=O)nc(-c2ccc(F)cc2)c1/C=C/[C@@H](O)C[C@@H](O)CC(=O)O [rosuvastatin]
- increase in plasma levels in individuals with the OATP1B1‐Val174Ala variant (OATP1B1 [1]): 1.5–3 fold

Compound: CC[C@H](C)C(=O)O[C@H]1C[C@H](O)C=C2C=C[C@H](C)[C@H](CC[C@@H](O)C[C@@H](O)CC(=O)O)[C@H]21 [pravastatin]
- Tmax ([2]; human, plasma, oral, 40 mg): 1.5 h
- AUC(0-t) ([2]; human, plasma, oral, 40 mg, pravastatin + placebo, TC): 48 ± 23 ng·h/mL
- AUC(0-t) ([2]; human, plasma, oral, 40 mg, pravastatin + placebo, c.521‐TT): 43 ± 15 ng·h/mL
- CL/F ([2]; human, plasma, oral, pravastatin + cyclosporine, CC (N = 3)): 10.7 mL/min/kg
- CL/F ([2]; human, plasma, oral, pravastatin + cyclosporine, TC (N = 8)): 24.2 mL/min/kg
- CL/F ([2]; human, plasma, oral, pravastatin + cyclosporine, TT (N = 9)): 24.5 mL/min/kg
- CL/F ([2]; human, plasma, oral, pravastatin + cyclosporine, all genotype): 22.3 mL/min/kg
- CL/F ([2]; human, plasma, oral, pravastatin + placebo, CC (N = 3)): 27.5 mL/min/kg
- CL/F ([2]; human, plasma, oral, pravastatin + placebo, TC (N = 8)): 90.3 mL/min/kg
- CL/F ([2]; human, plasma, oral, pravastatin + placebo, TT (N = 9)): 102 mL/min/kg
- CL/F ([2]; human, plasma, oral, pravastatin + placebo, all genotype): 86.2 mL/min/kg
- ratio of mean AUC0→12 in SLCO1B1 c.521CC and c.521TT ([2]; named peak only): 3.6 fold
- Cmax ([2]; named peak only (not combined), pravastatin + placebo, TC (N=8)): 31 ± 19 ng/mL
- V/F ([2]; pravastatin + cyclosporine, CC (N = 3)): 0.85 ± 0.70 L/kg
- V/F ([2]; pravastatin + cyclosporine, TC (N = 8)): 1.52 ± 0.54 L/kg
- V/F ([2]; pravastatin + cyclosporine, TT (N = 9)): 1.92 ± 1.34 L/kg
- V/F ([2]; pravastatin + cyclosporine, all genotype): 1.60 ± 1.02 L/kg
- V/F ([2]; pravastatin + placebo, CC (N = 3)): 1.94 ± 1.37 L/kg
- V/F ([2]; pravastatin + placebo, TC (N = 8)): 9.49 ± 9.08 L/kg
- V/F ([2]; pravastatin + placebo, TT (N = 9)): 9.56 ± 8.74 L/kg
- V/F ([2]; pravastatin + placebo, all genotype): 8.39 ± 8.39 L/kg

Compound: O=C(O)CCCCCCCCCCCCCCC(=O)O [HDA, hexadecanedioic acid]
- AUC(0-t) (OATP1B1 [3]; [5]): 1.68 µM·h
- AUC(0-t) (OATP1B1 [3]; [6]): 0.853 ± 0.303 µM·h
- AUC(0-t) (OATP1B1 [3]; [7]): 1.07 µM·h
- AUC(0-t) (OATP1B1 [3]; [8]): 1.45 µM·h
- AUC(0-t) (OATP1B1 [3]; [9]): 0.506 ± 0.116 µM·h
- C0 (OATP1B1 [3]; pravastatin + placebo, CC): 114 ± 47.5 nM
- C0 (OATP1B1 [3]; pravastatin + placebo, TC): 43.1 ± 13.4 nM
- C0 (OATP1B1 [3]; pravastatin + placebo, TT): 52 ± 29.6 nM
- AUClast [4, 10]: 1,070 ± 357 nM·hour
- AUClast [4, 11]: 557 ± 161 nM·h
- AUClast [4, 12]: 649 ± 346 nM·h
- C0 fold increase, pravastatin plus CsA over pravastatin plus placebo ([4]; CC): 1.0 fold
- AUClast fold increase, pravastatin plus CsA over pravastatin plus placebo ([4]; CC (N = 2)): 1.2 fold
- Cavg fold increase, pravastatin plus CsA over pravastatin plus placebo ([4]; CC (N = 2)): 1.2 fold
- C0 fold increase, pravastatin plus CsA over pravastatin plus placebo ([4]; TC): 1.6 fold
- AUClast fold increase, pravastatin plus CsA over pravastatin plus placebo ([4]; TC (N = 6)): 1.7 fold
- Cavg fold increase, pravastatin plus CsA over pravastatin plus placebo ([4]; TC (N = 6)): 2.0 fold
- C0 fold increase, pravastatin plus CsA over pravastatin plus placebo ([4]; TT): 1.7 fold
- AUClast fold increase, pravastatin plus CsA over pravastatin plus placebo ([4]; TT (N = 8)): 2.0 fold
- Cavg fold increase, pravastatin plus CsA over pravastatin plus placebo ([4]; TT (N = 8)): 2.2 fold
- AUClast fold increase, pravastatin plus CsA over pravastatin plus placebo ([4]; all genotype): 1.8 fold
- Cavg fold increase, pravastatin plus CsA over pravastatin plus placebo ([4]; all genotype): 2.0 fold
- Cmax fold increase, pravastatin plus CsA over pravastatin plus placebo ([4]; all genotype (N = 16)): 2.1 fold
- ratio of mean AUC in SLCO1B1 c.521‐CC to c.521TT ([4]; endogenous biomarker): 2.6 fold
- C0 [4, 13]: 84 ± 33 nM
- C0 [4, 14]: 60.1 ± 37 nM
- Cmax [4, 15]: 155 ± 55.1 nM
- Cavg [4, 5]: 149 ± 5.0 nM
- Cavg [4, 6]: 86.9 ± 33.0 nM
- Cavg [4, 7]: 98.5 ± 27.8 nM
- Cavg [4, 10]: 100 ± 33.3 nM
- Cmax ([4]; pravastatin + placebo (N = 16)): 90.6 ± 77.3 nM
- Cavg [4, 8]: 135 ± 46.6 nM
- Cavg [4, 9]: 44.0 ± 11.5 nM
- Cavg [4, 11]: 46.1 ± 14.3 nM
- Cavg [4, 12]: 56.4 ± 35.1 nM and 56.4 ± 35.1****^, ^b nM
- increase in plasma concentration, Cmax over baseline ([4]; pravastatin plus placebo, individuals homozygous c.521‐CC): at least twofold
- time of peak plasma level ([4]; two individuals c.521‐CC): around 3 hours and 3.0 hours

Compound: coproporphyrin III [CP‐III]
- AUClast [4, 5]: 2.22 ± 0.13 nM·h
- AUClast [4, 6]: 1.65 ± 0.60 nM·h
- AUClast [4, 7]: 1.56 ± 0.24 nM·h
- AUClast [4, 10]: 1.68 ± 0.44 nM·h
- AUClast [4, 8]: 1.7 ± 0.013 nM·h
- AUClast [4, 9]: 1.0 ± 0.68 nM·h
- AUClast [4, 11]: 1.2 ± 0.17 nM·h
- baseline (C0) level ([4]; 16 samples): below the levels of quantification for 12 of 16 samples
- AUClast fold increase, pravastatin plus CsA over pravastatin plus placebo ([4]; CC (N = 2)): 1.2 fold
- Cavg fold increase, pravastatin plus CsA over pravastatin plus placebo ([4]; CC (N = 2)): 1.3 fold
- AUClast fold increase, pravastatin plus CsA over pravastatin plus placebo ([4]; TC (N = 6)): 3.0 fold
- Cavg fold increase, pravastatin plus CsA over pravastatin plus placebo ([4]; TC (N = 6)): 1.7 fold
- AUClast fold increase, pravastatin plus CsA over pravastatin plus placebo ([4]; TT (N = 8)): 1.3 fold
- Cavg fold increase, pravastatin plus CsA over pravastatin plus placebo ([4]; TT (N = 8)): 1.4 fold
- AUClast fold increase, pravastatin plus CsA over pravastatin plus placebo ([4]; all genotype): 1.9 fold and 1.68 ± 0.44 (1.9) fold
- Cavg fold increase, pravastatin plus CsA over pravastatin plus placebo ([4]; all genotype): 1.5 fold
- Cmax fold increase, pravastatin plus CsA over pravastatin plus placebo ([4]; all genotype (N = 16)): 1.7 fold
- C0 [4, 13]: BLOQ in most samples
- C0 [4, 14]: BLOQ in most samples
- Cmax [4, 15]: 0.24 ± 0.05 nM
- Cavg [4, 5]: 0.21 ± 0.008 nM
- Cavg [4, 6]: 0.18 ± 0.02 nM
- Cavg [4, 7]: 0.15 ± 0.03 nM
- Cavg [4, 10]: 0.17 ± 0.03 nM
- Cmax ([4]; pravastatin + placebo (N = 16)): 0.15 ± 0.039 nM
- Cavg [4, 8]: 0.15 ± 0.004 nM
- Cavg [4, 9]: 0.11 ± 0.03 nM
- Cavg [4, 11]: 0.11 ± 0.02 nM
